Data published in patent US10988477B2 (Merck Patent GmbH, priority 2018, dated 2021).
pIC50, pKi: −log10 of the molar value.

Biological target: GCN2 kinase (Homo sapiens, UniProt Q9P2K8)
Assay: GCN2 enzyme inhibition assay (Transcreener ADP2 fluorescence polarization)
Format: biochemical
Details: Enzyme activity for compounds of Formula IV; Ki(app), 280 μM ATP, 25° C.
Summary of the method: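 4 nM GCN2 + 200 μM (RS)7 + compound (0–8 μM), 10 min preinc.; start with ATP (280 μM final); 1 h, 25 °C; pH 7.5 Tris/NaCl/MgCl2/DTT; ADP FP readout; IC50, Ki(app) via tight-binding fit.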

Sequence of GCN2 kinase (Q9P2K8 whole entry): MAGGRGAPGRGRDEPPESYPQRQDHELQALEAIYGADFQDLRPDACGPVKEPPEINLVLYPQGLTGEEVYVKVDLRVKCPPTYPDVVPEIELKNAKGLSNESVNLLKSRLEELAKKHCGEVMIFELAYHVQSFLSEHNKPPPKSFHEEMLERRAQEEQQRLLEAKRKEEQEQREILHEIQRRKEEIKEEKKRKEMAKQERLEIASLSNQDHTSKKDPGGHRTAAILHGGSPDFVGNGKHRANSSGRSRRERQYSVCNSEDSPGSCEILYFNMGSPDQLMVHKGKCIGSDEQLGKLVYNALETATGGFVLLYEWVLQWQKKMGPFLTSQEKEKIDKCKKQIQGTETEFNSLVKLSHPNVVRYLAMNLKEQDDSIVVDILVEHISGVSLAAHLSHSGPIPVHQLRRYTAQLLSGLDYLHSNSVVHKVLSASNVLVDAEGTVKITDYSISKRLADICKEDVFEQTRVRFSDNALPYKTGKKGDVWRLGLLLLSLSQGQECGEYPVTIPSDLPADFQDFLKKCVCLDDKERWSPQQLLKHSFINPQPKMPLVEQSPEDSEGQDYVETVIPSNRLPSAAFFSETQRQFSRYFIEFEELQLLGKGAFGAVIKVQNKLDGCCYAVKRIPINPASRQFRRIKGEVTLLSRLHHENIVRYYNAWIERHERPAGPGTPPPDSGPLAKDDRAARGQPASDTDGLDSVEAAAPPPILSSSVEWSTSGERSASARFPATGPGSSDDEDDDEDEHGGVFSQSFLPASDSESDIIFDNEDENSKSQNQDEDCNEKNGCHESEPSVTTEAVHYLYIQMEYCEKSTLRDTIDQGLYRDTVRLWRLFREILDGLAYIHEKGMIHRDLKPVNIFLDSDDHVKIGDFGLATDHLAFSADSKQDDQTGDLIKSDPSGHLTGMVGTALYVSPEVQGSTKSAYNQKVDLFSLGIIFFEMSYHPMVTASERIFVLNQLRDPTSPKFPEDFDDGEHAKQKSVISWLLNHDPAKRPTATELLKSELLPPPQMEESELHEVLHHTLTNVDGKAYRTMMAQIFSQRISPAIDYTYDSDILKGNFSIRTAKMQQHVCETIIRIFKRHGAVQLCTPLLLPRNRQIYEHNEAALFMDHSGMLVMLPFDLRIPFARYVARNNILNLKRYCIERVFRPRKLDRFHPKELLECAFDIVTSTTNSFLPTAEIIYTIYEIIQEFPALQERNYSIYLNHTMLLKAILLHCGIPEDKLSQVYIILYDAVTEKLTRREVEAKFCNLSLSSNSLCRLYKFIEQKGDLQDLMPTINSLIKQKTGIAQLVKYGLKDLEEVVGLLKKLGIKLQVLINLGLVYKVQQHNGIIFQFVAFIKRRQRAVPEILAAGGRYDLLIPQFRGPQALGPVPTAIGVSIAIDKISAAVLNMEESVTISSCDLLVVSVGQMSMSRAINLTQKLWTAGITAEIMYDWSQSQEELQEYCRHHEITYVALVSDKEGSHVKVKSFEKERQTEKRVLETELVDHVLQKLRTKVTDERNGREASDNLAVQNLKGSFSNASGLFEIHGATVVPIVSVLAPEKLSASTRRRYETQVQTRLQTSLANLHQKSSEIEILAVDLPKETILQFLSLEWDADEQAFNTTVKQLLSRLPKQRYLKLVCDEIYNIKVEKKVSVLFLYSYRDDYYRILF

Row | pKi | SMILES
1 | 6.00 to 7.00 | c1cc(-c2ccc3cc[nH]c3c2)nc(-c2cnc3cnccn23)c1 [IV-1, 3-(6-(1H-Indol-6-yl)pyridin-2-yl)imidazo[1,2-a]pyrazine]
2 | 6.00 to 7.00 | CC(=O)N1CCN(c2ccnc(-c3cnc4cnc(C#N)cn34)n2)CC1 [IV-31, 3-(4-(4-Acetylpiperazin-1-yl)pyrimidin-2-yl)imidazo[1,2-a]pyrazine-6-carbonitrile]
3 | 6.00 to 7.00 | Cc1cn2c(-c3nccc(N4CCO[C@H](CNS(C)(=O)=O)C4)n3)cnc2cn1 [IV-47, (S)—N-((4-(2-(6-Methylimidazo[1,2-a]pyrazin-3-yl)pyrimidin-4-yl)morpholin-2-yl)methyl)methanesulfonamide]
4 | 6.00 to 7.00 | CS(=O)(=O)NCC1CCN(c2ccnc(-c3cnc4cnc(C(F)F)cn34)n2)C1 (stereo not drawn) [IV-66, N-((1-(2-(6-(Difluoromethyl)imidazo[1,2-a]pyrazin-3-yl)pyrimidin-4-yl)pyrrolidin-3-yl)methyl)methanesulfonamide]
5 | 6.00 to 7.00 | CS(=N)(=O)c1cccc(-c2ccnc(-c3cnc4cnc(C(F)F)cn34)n2)c1 (stereo not drawn) [IV-79, (3-(2-(6-(difluoromethyl)imidazo[1,2-a]pyrazin-3-yl)pyrimidin-4-yl)phenyl)(imino)(methyl)-λ^6-sulfanone]
6 | 6.00 to 7.00 | [O-][S+]1CCN(c2ccnc(-c3cnc4cnc(C(F)F)cn34)n2)CC1 [IV-80, 4-(2-(6-(Difluoromethyl)imidazo[1,2-a]pyrazin-3-yl)pyrimidin-4-yl)thiomorpholine 1-oxide]
7 | 6.00 to 7.00 | O=S1(=O)CCN(c2ccnc(-c3cnc4cnc(C(F)F)cn34)n2)CC1 [IV-84, 4-(2-(6-(Difluoromethyl)imidazo[1,2-a]pyrazin-3-yl)pyrimidin-4-yl)thiomorpholine 1,1-dioxide]
8 | 6.00 to 7.00 | CC1C(NS(C)(=O)=O)CCCN1c1ccnc(-c2cnc3cnc(C(F)F)cn23)n1 (stereo not drawn) [IV-127, N-(1-(2-(6-(Difluoromethyl)imidazo[1,2-a]pyrazin-3-yl)pyrimidin-4-yl)-2-methylpiperidin-3-yl)methanesulfonamide]
9 | 6.00 to 7.00 | CC(C)(C)OC(=O)N1CCC2(CC1)CCN(c1ccnc(-c3cnc4cnc(C(F)F)cn34)n1)C2 [IV-133, tert-Butyl 2-(2-(6-(difluoromethyl)imidazo[1,2-a]pyrazin-3-yl)pyrimidin-4-yl)-2,8-diazaspiro[4.5]decane-8-carboxylate]
10 | 6.00 to 7.00 | FC(F)c1cn2c(-c3nccc(-c4cccc(N5CCNCC5)n4)n3)cnc2cn1 [IV-149, 6-(Difluoromethyl)-3-(4-(6-(piperazin-1-yl)pyridin-2-yl)pyrimidin-2-yl)imidazo[1,2-a]pyrazine]
11 | 6.00 to 7.00 | CS(=O)(=O)N1CCN(c2cccc(-c3ccnc(-c4cnc5cnc(C(F)F)cn45)n3)n2)CC1 [IV-151, 6-(Difluoromethyl)-3-(4-(6-(4-(methylsulfonyl)piperazin-1-yl)pyridin-2-yl)pyrimidin-2-yl)imidazo[1,2-a]pyrazine]
12 | 6.00 to 7.00 | FC(F)c1cn2c(-c3nccc(-c4cnn(C5CCOC5)c4)n3)cnc2cn1 (stereo not drawn) [IV-153, 6-(Difluoromethyl)-3-(4-(1-(tetrahydrofuran-3-yl)-1H-pyrazol-4-yl)pyrimidin-2-yl)imidazo[1,2-a]pyrazine]
13 | 6.00 to 7.00 | Cn1ccc2cc(-c3ccnc(-c4cnc5cnc(C(F)F)cn45)n3)ccc21 [IV-158, 6-(Difluoromethyl)-3-(4-(1-methyl-1H-indol-5-yl)pyrimidin-2-yl)imidazo[1,2-a]pyrazine]
14 | 6.00 to 7.00 | FC(F)c1cn2c(-c3nccc(C4=CCCC4)n3)cnc2cn1 [IV-163, 3-(4-(Cyclopent-1-en-1-yl)pyrimidin-2-yl)-6-(difluoromethyl)imidazo[1,2-a]pyrazine]
15 | 6.00 to 7.00 | CS(=O)(=O)NCC(=O)Nc1cccc(-c2ccnc(-c3cnc4cnc(C(F)F)cn34)n2)c1 [IV-173, N-(3-(2-(6-(Difluoromethyl)imidazo[1,2-a]pyrazin-3-yl)pyrimidin-4-yl)phenyl)-2-(methylsulfonamido)acetamide]
16 | 7.00 to 8.00 | CC1CCCN(c2ccnc(-c3cnc4cnc(C(N)=O)cn34)n2)C1 (stereo not drawn) [IV-187, 3-(4-(3-Methylpiperidin-1-yl)pyrimidin-2-yl)imidazo[1,2-a]pyrazine-6-carboxamide]
17 | 6.00 to 7.00 | CC(=O)N1CCN(c2nc(C)cc(-c3cnc4cnc(C(N)=O)cn34)n2)CC1 [IV-188, 3-(2-(4-Acetylpiperazin-1-yl)-6-methylpyrimidin-4-yl)imidazo[1,2-a]pyrazine-6-carboxamide]
18 | 6.00 to 7.00 | CC(=O)N1CCCN(c2ccnc(-c3cnc4cnc(C(N)=O)cn34)n2)CC1 [IV-190, 3-(4-(4-Acetyl-1,4-diazepan-1-yl)pyrimidin-2-yl)imidazo[1,2-a]pyrazine-6-carboxamide]
19 | 7.00 to 8.00 | Cc1cc(N2CCN(C(N)=O)CC2)nc(-c2cnc3cnc(C(N)=O)cn23)n1 [IV-196, 3-(4-(4-Carbamoylpiperazin-1-yl)-6-methylpyrimidin-2-yl)imidazo[1,2-a]pyrazine-6-carboxamide]
20 | 7.00 to 8.00 | CC(=O)N1CCN(c2ccnc(-c3cnc4cnc(-c5cc[nH]n5)cn34)n2)CC1 [IV-203, 1-(4-(2-(6-(1H-Pyrazol-3-yl)imidazo[1,2-a]pyrazin-3-yl)pyrimidin-4-yl)piperazin-1-yl)ethan-1-one]
21 | 7.00 to 8.00 | CC1CCCN(c2cccc(-c3cnc4cnc(C(N)=O)cn34)n2)C1 (stereo not drawn) [IV-205, 3-(6-(3-Methylpiperidin-1-yl)pyridin-2-yl)imidazo[1,2-a]pyrazine-6-carboxamide]
22 | 6.00 to 7.00 | CN1CCN(c2cccc(-c3cnc4cnc(C(N)=O)cn34)n2)CC1 [IV-212, 3-(6-(4-Methylpiperazin-1-yl)pyridin-2-yl)imidazo[1,2-a]pyrazine-6-carboxamide]
23 | 7.00 to 8.00 | CC1C(c2cn[nH]c2)OCCN1c1ccnc(-c2cnc3cnc(C(F)(F)F)cn23)n1 (stereo not drawn) [IV-218, 3-Methyl-2-(1H-pyrazol-4-yl)-4-(2-(6-(trifluoromethyl)imidazo[1,2-a]pyrazin-3-yl)pyrimidin-4-yl)morpholine]
24 | 7.00 to 8.00 | NC(=O)c1cn2c(-c3cccc(N4CCC(O)CC4)n3)cnc2cn1 [IV-219, 3-(6-(4-Hydroxypiperidin-1-yl)pyridin-2-yl)imidazo[1,2-a]pyrazine-6-carboxamide]

Same assay, conditions: compounds of Formula II; 280 μM ATP, 4 nM GCN2 kinase

Row | pKi | pIC50 | SMILES
25 | < 6.00 |  | CC1CC(P(C)(C)=O)CN(c2cc(-c3cnc4ccc(C(F)(F)F)nn34)ncn2)C1 (stereo not drawn) [II-712, 3-[6-(3-Dimethylphosphoryl-5-methyl-1-piperidyl)pyrimidin-4-yl]-6-(trifluoromethyl)imidazo[1,2-b]pyridazine]
26 | 6.00 to 8.00 |  | CC1CC(P(C)(C)=O)CN(c2cc(-c3cnc4ccc(C(F)(F)F)nn34)ncn2)C1 (stereo not drawn) [II-713, 3-[6-(3-Dimethylphosphoryl-5-methyl-1-piperidyl)pyrimidin-4-yl]-6-(trifluoromethyl)imidazo[1,2-b]pyridazine]
27 | < 6.00 |  | CC(=O)N1CCN(c2cc(-c3cnc4ccc(C(=O)O)nn34)ccn2)CC1 [II-734, 3-(2-(4-acetylpiperazin-1-yl)pyridin-4-yl)imidazo[1,2-b]pyridazine-6-carboxylic acid]
28 | 6.00 to 8.00 |  | Cc1noc([C@@H]2CN(c3cc(-c4cnc5ccc(C(F)(F)F)nn45)ccn3)C[C@@H](C)O2)n1 [II-742]
29 | 6.00 to 8.00 |  | C[C@H]1CN(c2cc(-c3cnc4ccc(C(F)(F)F)nn34)ccn2)C[C@@H](c2nc(C3CC3)no2)O1 [II-743]
30 | 6.00 to 8.00 |  | Cc1noc([C@H]2CN(c3cc(-c4cnc5ccc(C(F)(F)F)nn45)ccn3)C[C@@H](C)O2)n1 [II-744]
31 | 6.00 to 8.00 |  | Cc1noc([C@@H]2CN(c3cc(-c4cnc5ccc(C(F)(F)F)nn45)ccn3)C[C@H](C)O2)n1 [II-745]
32 | 6.00 to 8.00 |  | FC(F)(F)c1ccc2ncc(-c3ccnc(N4CCCC(c5ncc[nH]5)C4)c3)n2n1 (stereo not drawn) [II-746]
33 | 6.00 to 8.00 |  | Cc1nnc([C@@H]2CN(c3cc(-c4cnc5ccc(C(F)(F)F)nn45)ccn3)C[C@H](C)O2)o1 [II-747]
34 | 6.00 to 8.00 |  | Cc1noc([C@@H]2CN(c3cc(-c4cnc5ccc(C(F)F)nn45)ccn3)C[C@H](C)O2)n1 [II-748]
35 | 6.00 to 8.00 |  | FC(F)c1ccc2ncc(-c3ccnc(N4CCCC(c5c[nH]cn5)C4)c3)n2n1 (stereo not drawn) [II-749]
36 | > 8.00 |  | FC(F)c1ccc2ncc(-c3ccnc(N4CCCC(c5cn[nH]c5)C4)c3)n2n1 (stereo not drawn) [II-750]
37 |  | < 6.00 | C[C@H]1[C@H](CNS(C)(=O)=O)CCCN1c1cc(-c2cnc3ccc(C(F)F)nn23)ncn1 [II-756, N-(((2S,3S)-1-(6-(6-(difluoromethyl)imidazo[1,2-b]pyridazin-3-yl)pyrimidin-4-yl)-2-methylpiperidin-3-yl)methyl)methanesulfonamide]
38 |  | < 6.00 | Cc1nn(C)cc1[C@H]1CN(c2cc(-c3cnc4ccc(C(F)(F)F)nn34)ncn2)C[C@H](C)O1 [II-758, (2S,6S)-2-(1,3-dimethyl-1H-pyrazol-4-yl)-6-methyl-4-(6-(6-(trifluoromethyl)imidazo[1,2-b]pyridazin-3-yl)pyrimidin-4-yl)morpholine]
39 |  | 6.00 to 8.00 | C[C@@H]1C[C@H](N=S(C)(C)=O)CN(c2cc(-c3cnc4ccc(N5CC(F)C5)nn34)ncn2)C1 [II-764, (((3S,5R)-1-(6-(6-(3-fluoroazetidin-1-yl)imidazo[1,2-b]pyridazin-3-yl)pyrimidin-4-yl)-5-methylpiperidin-3-yl)imino)dimethyl-16-sulfanone]

Same assay, conditions: compounds of Formula III; 280 μM ATP, 4 nM GCN2 kinase

Row | pKi | SMILES
40 | > 8.00 | CC1C(CNS(C)(=O)=O)C(F)(F)C(C)CN1c1cc(-c2cnn3ccc(C(F)F)nc23)ncn1 (stereo not drawn) [III-13, N-[[1-[6-[5-(Difluoromethyl)pyrazolo[1,5-a]pyrimidin-3-yl]pyrimidin-4-yl]-4,4-difluoro-2,5-dimethyl-3-piperidyl]methyl]methanesulfonamide]
41 | 6.00 to 8.00 | CC1CC(N=S(C)(C)=O)CN(c2cc(-c3cnn4ccc(C(F)F)nc34)ncn2)C1 (stereo not drawn) [III-14, [1-[6-[5-(Difluoromethyl)pyrazolo[1,5-a]pyrimidin-3-yl]pyrimidin-4-yl]-5-methyl-3-piperidyl]imino-dimethyl-oxo-6-sulfane]
42 | < 6.00 | c1ccc(-c2cc(-c3cnn4cccnc34)ccn2)cc1 [III-15, 3-(2-phenylpyridin-4-yl)pyrazolo[1,5-a]pyrimidine]
